Legend:
EC = EC proliferation, 3[H]thymidine incorporation assay (Table 3); assay type: cell-based, human
Experimental: EC proliferation was measured using a ^3[H]thymidine incorporation assay. EC were seeded in flatbottomed 96-well tissue culture plates (5000 cells/well) and grown for 3 days, in culture medium. In some cultures the proliferation of EC was enhanced by incubation with 10 ng/ml bFGF. During the last 6 hours of the assay, the culture was pulsed with 0.5 μCi [methyl-3 H]thymidine/well. Results are expressed as the arithmetic mean counts per minute (cpm) of triplicate cultures.

[1] = test system: intercellular adhesion molecule-1 (ICAM-1); assay: ICAM-1 expression on bFGF-treated EC (flow cytometry, Northern blot); assay type: cell-based, human; details: for bFGF mediated downregulation of ICAM-1: 100 μg/ml added simultaneously with 10 ng/ml bFGF, 3 days
Experimental: In a first series of experiments, PF4 and βpep peptides were tested for their ability to prevent bFGF (fibroblast growth factor) mediated downregulation of ICAM-1. […] Simultaneously 100 μg/ml of each PF4, βpep-14, βpep-16, or medium was added. Mean ICAM-1 fluorescence intensity values were determined.
Since the in vivo situation of tumor-associated EC involves the low expression or even absence of ICAM-1, the next set of experiments aimed to study the ability to re-induce ICAM-1 expression after bFBF preincubation. […] In these experiments, HUVEC were pretreated for 3 days with bFGF, subsequently PF4 was added for 3 days and, where indicated in the last 16 hours of culture 4 ng/ml TNF(X was added. Human umbilical vein derived endothelial cells (HUVEC) were harvested from normal human umbilical cords by perfusion with 0.125% trypsin/EDTA. Cells were cultured in fibronectin (FN) coated tissue culture flasks in culture medium (RPMI-1640 with 20% human serum (HS), supplemented with 2 mM glutamine and 100 U/ml penicillin and 0.1 mg/ml streptomycin). Immunofluorescence using indirect PE-conjugated reagents required three separate incubations. 1×10^5 EC were fixed for 1 hour in 1% paraformaldehyde, resuspended in 20 μl appropriately diluted Mab and incubated for 1 hour on ice. Subsequently, cells were washed two times in PBS/BSA (0.1%) and incubated for another 30 minutes with biotinylated rabbit-anti-mouse Ig (Dako, Glostrup, Denmark). After another 2 washings, cells were incubated with streptavidin-phycoerythrin conjugate (Dako). Stained cells were analyzed on a FACScan flowcytometer. Data analysis was performed using PCLysys software (Becton Dickinson, Mountain View, Calif.). Statistical significance of observed differences was determined using the Student's t-test.
The anergy of EC to stimulation with inflammatory cytokines was the subject of additional experiments. For these experiments, HUVEC (human vascular endothelial cells) were pretreated with 10 ng/ml bFGF for 3 days. Subsequently, cells are subcultured for 3 days with […] in the presence of PF4. For the last 16 hours of the culture 4 ng/ml TNF-α was added to induce upregulation of ICAM-1. […] The regulation of ICAM-1 at the protein level was confirmed in Northern blot analysis for detection of ICAM-1 message. In these experiments, HUVEC were cultured for 3 days with bFGF and treated for the last 4 and 24 hours with PF4 (100 μg/ml). TNF-α was added 2 hours before isolation of RNA. RNA from a subconfluent EC cultures (75 cm^2 Petri-dishes) incubated with bFGF for different time-points was isolated using an RNA-zol kit (Campro Scientific, Houston, Tex.). Total RNA (10 μg) for each sample was separated in a 0.8% formaldehyde-denaturing gel, transferred to nitrocellulose (Hybond N+, Amersham International, Amersham, UK) and hybridized to a ^32P-labelled 1.9 Kb c-DNA probe, containing the functional sequence of the human ICAM-1 gene (a gift from Dr. B. Seed). Membranes were washed at a high stringency in 0.2×SSC, 0.1% SDS at 50° C. for 1 hour. Filters were exposed to X-ray films (Kodak X-omat, Eastman Kodak Company, Rochester, N.Y.) using an intensifying screen at −80° C. for not less than 12 hours. Autoradiograms were subjected to scanning using a laser densitometer (Model GS670, Bio-Rad, Hercules, Calif.) and data were analysed with the Molecular Analyst PCTM software. The intensity of the major ICAM-1 mRNA transcript was normalized with respect to actin mRNA expression used as a control.

[2] = test system: endothelial cell (FBHEC, HUVEC)
Experimental: β-sheet peptides βpep 1-24 were tested in an endothelial cell proliferation assay using ^3H-thymidine incorporation.

SCK tumors = assay: Radiosensitization test of SCK tumors, i.p. injections plus 10 Gy on days 0 and 1
Experimental: On days 0 and 1 the injections were given 2 hours prior to tumor irradiation (10 Gy each day) (Mauceri et al., Nature 394, 287-91 (1998)).
Tumor volume was determined by measuring the diameters of the tumor using metric-scale calipers (Scienceware; Pequannock, N.J.) and solving the equation to determine the volume of a spheroid: (a^2×b×Π)/6, where ‘a’ is the width and ‘b’ is the length of the tumor.
Growth delay was calculated by subtracting the average time for control tumors to grow three-fold in volume from the time required for treated tumors to increase in volume by 3-fold from the day of radiation.

HUVEC = details: PF4 100 μg/ml, bFGF 10 ng/ml
Experimental: Functional impact for the observed phenomena was provided by leukocyte/EC adhesion assays as described earlier (Griffloen et al. Cancer Res. 56, 1111-1117 (1996)). […] PHA-activated peripheral blood T lymphocyte were adhered for 1 hour at 37° C. to TNF-α (4 ng/ml), bFGF (10 ng/ml) and PF4 (100 μg/ml) treated, or control (HUVEC). Non-adhering cells were removed and adhered cells were enumerated by an inverted microscope. Values of one representative experiment out of three are expressed as numbers of adhered cells per high power field. Statistical significance is determined by the Student's t-test.

[3] = first expt 2, 1 μg/ml, 10 ng/ml bFGF, medium 29079 ± 2506
[4] = first expt 2, 1 μg/ml, no bFGF, medium 14296 ± 2490
[5] = first expt 2, 10 μg/ml, 10 ng/ml bFGF, medium 29079 ± 2506
[6] = first expt 2, 10 μg/ml, no bFGF, medium 14296 ± 2490
[7] = first expt 2, 100 μg/ml, 10 ng/ml bFGF, medium 29079 ± 2506
[8] = first expt 2, 100 μg/ml, no bFGF, medium 14296 ± 2490
[9] = second expt 2, 1 μg/ml, 10 ng/ml bFGF, medium 52808 ± 4092
[10] = second expt 2, 1 μg/ml, no bFGF, medium 6780 ± 713
[11] = second expt 2, 10 μg/ml, 10 ng/ml bFGF, medium 52808 ± 4092
[12] = second expt 2, 10 μg/ml, no bFGF, medium 6780 ± 713
[13] = second expt 2, 100 μg/ml, 10 ng/ml bFGF, medium 52808 ± 4092
[14] = second expt 2, 100 μg/ml, no bFGF, medium 6780 ± 713

## SIQDLNVSMKLFRKQAKWKIIAKLNDGRELSLD [βpep-16]
EC
  angiostatic as determined by EC proliferation in vitro: angiostatic
EC; [3]
  EC proliferation, (3H)-thymidine incorporation: 35447 ± 2621 cpm
EC; [4]
  EC proliferation, (3H)-thymidine incorporation: 15039 ± 2020 cpm
EC; [5]
  EC proliferation, (3H)-thymidine incorporation: 33663 ± 2572 cpm
EC; [6]
  EC proliferation, (3H)-thymidine incorporation: 11881 ± 2545 cpm
EC; [7]
  EC proliferation, (3H)-thymidine incorporation: 7852 ± 875 cpm
EC; [8]
  EC proliferation, (3H)-thymidine incorporation: 4929 ± 749 cpm
EC; [9]
  EC proliferation, (3H)-thymidine incorporation: 47727 ± 447 cpm
EC; [10]
  EC proliferation, (3H)-thymidine incorporation: 7450 ± 737 cpm
EC; [11]
  EC proliferation, (3H)-thymidine incorporation: 44919 ± 2081 cpm
EC; [12]
  EC proliferation, (3H)-thymidine incorporation: 6148 ± 1370 cpm
EC; [13]
  EC proliferation, (3H)-thymidine incorporation: 27071 ± 3277 cpm
EC; [14]
  EC proliferation, (3H)-thymidine incorporation: 2669 ± 370 cpm
[1]
  bFGF mediated downregulation of ICAM-1: complete block of bFGF-mediated downregulation

## ANIKLSVEMKLFKRHLKWKIIVKLNDGRELSLD [βpep-8]
[2]
  cell proliferation activity (control of endothelial cell proliferation): little cell proliferation activity

## interferon-γ inducible protein-10 [IP-10]
EC; expt 3, 100 μg/ml, 10 ng/ml bFGF, medium 3432 ± 232
  EC proliferation, (3H)-thymidine incorporation: 725 ± 95 cpm
[1]
  effect on ICAM-1 expression, other inhibitors of angiogenesis: the same results

## SIQFLKVSLNLDRKQAKWKIIVKLNDGRELSLD [βpep-24]
[2]
  cell proliferation activity (control of endothelial cell proliferation): very good at controlling cell proliferation

## O=C1CCC(N2C(=O)c3ccccc3C2=O)C(=O)N1 (stereo not shown) [thalidomide, reference compound]
EC
  EC growth in vitro: do not affect EC growth in vitro
[1]
  effect on ICAM-1 expression, other inhibitors of angiogenesis: did not affect ICAM-1 expression

## angiostatin
SCK tumors; angiostatin 25 or 50 mg/kg i.p. combined with 10 Gy days 0 and 1
  complete responses: nor did it induce any complete responses
SCK tumors; angiostatin 25 or 50 mg/kg i.p. days -1, 0, 1 combined with 10 Gy days 0 and 1
  delay in tumor growth: did not result in any significant delay in tumor growth

## thrombospondin-1 [TSP-1]
EC; expt 4, 10 μg/ml, 10 ng/ml bFGF, medium 31954 ± 1220
  EC proliferation, (3H)-thymidine incorporation: 22338 ± 860 cpm
EC; expt 4, 10 μg/ml, no bFGF, medium 18904 ± 1501
  EC proliferation, (3H)-thymidine incorporation: 8865 ± 639 cpm
EC; expt 4, 25 μg/ml, 10 ng/ml bFGF, medium 31954 ± 1220
  EC proliferation, (3H)-thymidine incorporation: 10267 ± 797 cpm
EC; expt 4, 25 μg/ml, no bFGF, medium 18904 ± 1501
  EC proliferation, (3H)-thymidine incorporation: 5565 ± 349 cpm
[1]
  effect on ICAM-1 expression, other inhibitors of angiogenesis: the same results

## SIQDLNVSMKLFRKQAKWKLIVKLNDGRELSLD [βpep-14]
EC
  angiostatic as determined by EC proliferation in vitro: angiostatic
EC; [3]
  EC proliferation, (3H)-thymidine incorporation: 28695 ± 1062 cpm
EC; [4]
  EC proliferation, (3H)-thymidine incorporation: 14184 ± 1775 cpm
EC; [5]
  EC proliferation, (3H)-thymidine incorporation: 29530 ± 1608 cpm
EC; [6]
  EC proliferation, (3H)-thymidine incorporation: 9886 ± 2114 cpm
EC; [7]
  EC proliferation, (3H)-thymidine incorporation: 6585 ± 132 cpm
EC; [8]
  EC proliferation, (3H)-thymidine incorporation: 3774 ± 299 cpm
EC; [9]
  EC proliferation, (3H)-thymidine incorporation: 48443 ± 2700 cpm
EC; [10]
  EC proliferation, (3H)-thymidine incorporation: 7214 ± 1668 cpm
EC; [11]
  EC proliferation, (3H)-thymidine incorporation: 52126 ± 1258 cpm
EC; [12]
  EC proliferation, (3H)-thymidine incorporation: 6074 ± 899 cpm
EC; [13]
  EC proliferation, (3H)-thymidine incorporation: 7663 ± 715 cpm
EC; [14]
  EC proliferation, (3H)-thymidine incorporation: 1062 ± 325 cpm
[1]
  bFGF mediated downregulation of ICAM-1: complete block of bFGF-mediated downregulation

## Platelet Factor 4 [PF4]
EC; expt 1, 1 μg/ml, 10 ng/ml bFGF, medium 28815 ± 1007
  EC proliferation, (3H)-thymidine incorporation: 28782 ± 815 cpm
EC; expt 1, 1 μg/ml, no bFGF, medium 4044 ± 206
  EC proliferation, (3H)-thymidine incorporation: 4656 ± 456 cpm
EC; expt 1, 10 μg/ml, 10 ng/ml bFGF, medium 28815 ± 1007
  EC proliferation, (3H)-thymidine incorporation: 23868 ± 402 cpm
EC; expt 1, 10 μg/ml, no bFGF, medium 4044 ± 206
  EC proliferation, (3H)-thymidine incorporation: 4066 ± 351 cpm
EC; expt 1, 100 μg/ml, 10 ng/ml bFGF, medium 28815 ± 1007
  EC proliferation, (3H)-thymidine incorporation: 4655 ± 421 cpm
EC; expt 1, 100 μg/ml, no bFGF, medium 4044 ± 206
  EC proliferation, (3H)-thymidine incorporation: 1651 ± 172 cpm
EC; [9]
  EC proliferation, (3H)-thymidine incorporation: 43524 ± 5318 cpm
EC; [10]
  EC proliferation, (3H)-thymidine incorporation: 6171 ± 1227 cpm
EC; [11]
  EC proliferation, (3H)-thymidine incorporation: 8337 ± 704 cpm
EC; [12]
  EC proliferation, (3H)-thymidine incorporation: 3547 ± 317 cpm
EC; [13]
  EC proliferation, (3H)-thymidine incorporation: 1654 ± 375 cpm
EC; [14]
  EC proliferation, (3H)-thymidine incorporation: 947 ± 170 cpm
[1]
  bFGF mediated downregulation of ICAM-1: did not result in the loss of ICAM-1 expression
[1]; 100 μg/ml alone
  expression of ICAM-1: enhanced the expression of ICAM-1
[1]; HUVEC pretreated 3 days with bFGF, then 100 μg/ml for 3 days in the presence of bFGF
  re-induction of ICAM-1 expression after bFGF preincubation: reinduction of ICAM-1
[1]; bFGF-pretreated HUVEC, 4 ng/ml TNF-α for the last 16 hours
  decreased inflammatory response (TNF-α induced ICAM-1) of angiogenic stimulated EC: overcome
HUVEC
  bFGF mediated inhibition of leukocyte adhesion to cultured HUVEC: completely abolished

From US20070010438A1, “Tumor treatment using beta-sheet peptides and radiotherapy” (priority 2005, published 2007)
